pIC50: −log10 of the molar value. Where two headings read alike, the source gives them in different places.
Legend:
AURKA = target: T1, AURKA (Homo sapiens, UniProt O14965); assay type: cell-based
T1 construct: endogenous in cells; host or cells: Jurkat cells
T1 sequence (O14965 1-403): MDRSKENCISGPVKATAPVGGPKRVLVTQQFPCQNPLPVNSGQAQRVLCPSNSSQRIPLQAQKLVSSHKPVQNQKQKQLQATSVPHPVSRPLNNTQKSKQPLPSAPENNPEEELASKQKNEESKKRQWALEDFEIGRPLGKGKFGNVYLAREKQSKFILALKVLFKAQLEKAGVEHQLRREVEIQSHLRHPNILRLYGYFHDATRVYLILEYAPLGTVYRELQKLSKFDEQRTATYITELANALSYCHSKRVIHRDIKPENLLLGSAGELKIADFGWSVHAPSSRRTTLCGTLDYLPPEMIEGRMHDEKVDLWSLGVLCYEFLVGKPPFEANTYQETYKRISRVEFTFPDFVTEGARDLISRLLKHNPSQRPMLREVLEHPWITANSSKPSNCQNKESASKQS
In short: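 Jurkat cells seeded at 1×10^6 cells/500 µL and treated with compound; lysates run on SDS-PAGE, blotted to nitrocellulose and probed overnight at 4°C for AURKA. Chemiluminescent or fluorescent band intensity fitted to a curve to give DC50 for protein degradation.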

H82 cells = test: cells; assay type: cell-based; settings: Homo sapiens
In short: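 H82 cells in RPMI1640 + 10% FBS exposed to compound (0.1% DMSO final) for 6 days at 37 °C, 5% CO2. Viability read by CellTiter-Glo ATP luminescence, normalised to DMSO and medium controls; IC50 from nonlinear regression of the dose–survival curve.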

[1] = 100 nM compound, Jurkat cells, 24 h, Table 2
[2] = 1 µM compound, Jurkat cells, 24 h, Table 2
[3] = NCI-H82, H82 cells, 4000 cells/well, CellTiter-Glo, read-out: IC50 in H82 Cells
[4] = NCI-H82, read-out: IC50 in H82 Cells

SMILES	Percentage of AURKA Degradation Induced by 100 nM Compound in Jurkat Cells (AURKA; [1])	Percentage of AURKA Degradation Induced by 1 µM Compound in Jurkat Cells (AURKA; [2])	pIC50 (H82 cells; [3])	Percentage of AURKA Degradation Induced by 100 nM Compound in Jurkat Cells (AURKA)	Percentage of AURKA Degradation Induced by 1 µM Compound in Jurkat Cells (AURKA)	pIC50 (H82 cells; [4])
O=C1CCN(c2ccc(N3CCOC(C(=O)N4CCN(c5ccc(Nc6ncc7c(n6)-c6ccc(Cl)cc6C(c6c(F)cccc6F)=NC7)cc5)CC4)C3)nc2)C(=O)N1 (stereo not drawn) [Compound A285]	+++ (Degradation > 70%)	+++ (Degradation > 70%)	> 6.00			
O=C1CCN(c2cnc(N3CCN(CC4(F)CN(c5ccc(Nc6ncc7c(n6)-c6ccc(Cl)cc6C(c6c(F)cccc6F)=NC7)cc5)C4)CC3)nc2)C(=O)N1 [Compound A286]	++ (30% < Degradation ≤ 70%)	++ (30% < Degradation ≤ 70%)	> 6.00			
CP(C)(=O)c1cc(N2CCC(=O)NC2=O)ccc1N1CCN(C(=O)C2CCN(c3ccc(Nc4ncc5c(n4)-c4ccc(Cl)cc4C(c4c(F)cccc4F)=NC5)cc3)CC2)CC1 [Compound A287]	+ (Degradation ≤ 30%)	+ (Degradation ≤ 30%)	> 6.00			
CP(C)(=O)c1cc(N2CCN(C(=O)C3CCN(c4ccc(Nc5ncc6c(n5)-c5ccc(Cl)cc5C(c5c(F)cccc5F)=NC6)cc4)CC3)CC2)ccc1N1CCC(=O)NC1=O [Compound A288]	+ (Degradation ≤ 30%)	+ (Degradation ≤ 30%)	> 6.00			
O=C1CCN(c2ccc(N3CCC(O)(CN4CCN(C56CC(Nc7ncc8c(n7)-c7ccc(Cl)cc7C(c7c(F)cccc7F)=NC8)(C5)C6)C(=O)C4)CC3)nc2)C(=O)N1 [Compound A290]				++ (key: +: Degradation ≤ 30%; ++: 30% < Degradation ≤ 70%; +++: Degradation > 70%)	+++ (key: +: Degradation ≤ 30%; ++: 30% < Degradation ≤ 70%; +++: Degradation > 70%)	> 6.00
O=C1CCN(c2ccc(N3CCN(CC4(F)CN(c5ccc(Nc6ncc7c(n6)-c6ccc(Cl)cc6C(c6nccs6)=NC7)cc5)C4)CC3)nc2)C(=O)N1 [Compound A291]	+++ (Degradation > 70%)	+++ (Degradation > 70%)	> 6.00			
O=C1CCN(c2ccc(N3CC(C(=O)N4CCN(c5ccc(Nc6ncc7c(n6)-c6ccc(Cl)cc6C(c6nccs6)=NC7)cc5)CC4)C3)nc2)C(=O)N1 [Compound A292]	+++ (Degradation > 70%)	+++ (Degradation > 70%)	> 6.00			
O=C1CCN(c2ccc(N3CCC(C4CN(C(=O)C56CC(Nc7ncc8c(n7)-c7ccc(Cl)cc7C(c7c(F)cccc7F)=NC8)(C5)C6)C4)CC3)nc2)C(=O)N1 [Compound A293]	+++ (Degradation > 70%)	+++ (Degradation > 70%)	> 6.00			
O=C1CCN(c2ccc(N3CCC(F)(CN4CC(=O)N(C56CC(Nc7ncc8c(n7)-c7ccc(Cl)cc7C(c7c(F)cccc7F)=NC8)(C5)C6)C(=O)C4)CC3)nc2)C(=O)N1 [Compound A294]	++ (30% < Degradation ≤ 70%)	++ (30% < Degradation ≤ 70%)	> 6.00			
N#Cc1cc(N2CCC(=O)NC2=O)ccc1N1CCN(C(=O)C2CCN(c3ccc(Nc4ncc5c(n4)-c4ccc(Cl)cc4C(c4c(F)cccc4F)=NC5)cc3)CC2)CC1 [Compound A296]	+++ (Degradation > 70%)	+++ (Degradation > 70%)	> 6.00			
O=C1CCN(c2ccc(N3CC(C4CCN(C(=O)C56CC(Nc7ncc8c(n7)-c7ccc(Cl)cc7C(c7c(F)cccc7F)=NC8)(C5)C6)CC4)C3)nc2)C(=O)N1 [Compound A297]	+++ (Degradation > 70%)	+++ (Degradation > 70%)	> 6.00			
O=C1CCN(c2ccc(N3CC4(CC(N5CCN(C67CC(Nc8ncc9c(n8)-c8ccc(Cl)cc8C(c8c(F)cccc8F)=NC9)(C6)C7)C(=O)C5)C4)C3)nc2)C(=O)N1 [Compound A298]	+++ (Degradation > 70%)	+++ (Degradation > 70%)	> 6.00			
O=C1CCN(c2ccc(N3CC(O)(CN4CCN(c5ccc(Nc6ncc7c(n6)-c6ccc(Cl)cc6C(c6c(F)cccc6F)=NC7)cc5)C(=O)C4)C3)nc2)C(=O)N1 [Compound A299]				+++ (key: +: Degradation ≤ 30%; ++: 30% < Degradation ≤ 70%; +++: Degradation > 70%)	+++ (key: +: Degradation ≤ 30%; ++: 30% < Degradation ≤ 70%; +++: Degradation > 70%)	> 6.00
O=C1CCN(c2ccc(N3CCC(O)(CN4CCN(c5ccc(Nc6ncc7c(n6)-c6ccc(Cl)cc6C(c6c(F)cccc6F)=NC7)cc5)C(=O)C4)CC3)nc2)C(=O)N1 [Compound A300]				+++ (key: +: Degradation ≤ 30%; ++: 30% < Degradation ≤ 70%; +++: Degradation > 70%)	+++ (key: +: Degradation ≤ 30%; ++: 30% < Degradation ≤ 70%; +++: Degradation > 70%)	> 6.00
CC(C1CCN(c2ccc(N3CCC(=O)NC3=O)cn2)CC1)N1CCN(C23CC(Nc4ncc5c(n4)-c4ccc(Cl)cc4C(c4c(F)cccc4F)=NC5)(C2)C3)C(=O)C1 (stereo not drawn) [Compound A302]	+++ (Degradation > 70%)	+++ (Degradation > 70%)	> 6.00			
CP(C)(=O)c1cc(Nc2ncc3c(n2)-c2ccc(Cl)cc2C(c2c(F)cccc2F)=NC3)ccc1N1CCN(C2CCN(c3ccc(N4CCC(=O)NC4=O)cn3)CC2)CC1=O [Compound A303]	+++ (Degradation > 70%)	+++ (Degradation > 70%)	> 6.00			
N#Cc1cc(N2CCN(C(=O)C3CCN(c4ccc(Nc5ncc6c(n5)-c5ccc(Cl)cc5C(c5c(F)cccc5F)=NC6)cc4)CC3)CC2)ccc1N1CCC(=O)NC1=O [Compound A304]	+++ (Degradation > 70%)	+++ (Degradation > 70%)	> 6.00			
N#Cc1ccc2c(c1)C(c1c(F)cccc1F)=NCc1cnc(Nc3ccc(N4CCN(C5CCN(c6ccc(N7CCC(=O)NC7=O)cn6)CC5)CC4=O)cc3)nc1-2 [Compound A305]	+++ (Degradation > 70%)	+++ (Degradation > 70%)	> 6.00			
O=C1CCN(c2ccc(N3CCC(N4CCN(C56CC(Nc7ncc8c(n7)-c7ccc(Cl)cc7C(c7c(F)cccc7F)=NC8)(C5)C6)C(=O)C4)CC3)nc2)C(=O)N1 [Compound A306]	++ (30% < Degradation ≤ 70%)	+++ (Degradation > 70%)	> 6.00			
O=C1CCN(c2ccc(N3CCN(C(=O)C4CN(c5ccc(Nc6ncc7c(n6)-c6ccc(Cl)cc6C(c6c(F)cccc6F)=NC7)cc5)CCO4)CC3)nc2)C(=O)N1 (stereo not drawn) [Compound A308]	+++ (Degradation > 70%)	+++ (Degradation > 70%)	> 6.00			
CN1CCN(c2ccc(N3CCC(=O)NC3=O)cn2)CC1C(=O)N1CCN(c2ccc(Nc3ncc4c(n3)-c3ccc(Cl)cc3C(c3c(F)cccc3F)=NC4)cc2)CC1 (stereo not drawn) [Compound A309]	++ (30% < Degradation ≤ 70%)	++ (30% < Degradation ≤ 70%)	> 6.00			
O=C1CCN(c2ccc(N3CCOC(CN4CCN(C56CC(Nc7ncc8c(n7)-c7ccc(Cl)cc7C(c7c(F)cccc7F)=NC8)(C5)C6)C(=O)C4)C3)nc2)C(=O)N1 (stereo not drawn) [Compound A311]	+++ (Degradation > 70%)	+++ (Degradation > 70%)	> 6.00			
CC1(C)CN(C23CC(Nc4ncc5c(n4)-c4ccc(Cl)cc4C(c4c(F)cccc4F)=NC5)(C2)C3)C(=O)CN1CC1CCN(c2ccc(N3CCC(=O)NC3=O)cn2)CC1 [Compound A316]				++ (key: +: Degradation ≤ 30%; ++: 30% < Degradation ≤ 70%; +++: Degradation > 70%)	++ (key: +: Degradation ≤ 30%; ++: 30% < Degradation ≤ 70%; +++: Degradation > 70%)	> 6.00
N#Cc1ccc2c(c1)C(c1c(F)cccc1F)=NCc1cnc(Nc3ccc(N4CC(F)(CN5CCN(c6ccc(N7CCC(=O)NC7=O)cn6)CC5)C4)cc3)nc1-2 [Compound A319]	+++ (Degradation > 70%)	+++ (Degradation > 70%)	> 6.00			

From patent publication EP4818168A1, “FUSED RING COMPOUND, PHARMACEUTICAL COMPOSITION THEREOF AND USE THEREOF” (priority 2023, dated 2025)
